Experimental data taken from publication PMC8343220, “The selectivity of α‐adrenoceptor agonists for the human α1A, α1B, and α1D‐adrenoceptors” (Pharmacology Research & Perspectives, 2021).
Entries after “also recorded” stand apart in the source; their conditions may differ. Where two headings read alike, the source gives them in different places. Marks after values point to notes of the source that are not given here.

What was measured:
[1] = test system: parental CHO cell line without any transfected receptors; test: ^3H‐cAMP accumulation, parent CHO cells without transfected receptors; format: cell-based, Chinese hamster
[2] = test system: parental CHO cell line without any transfected receptors; test: Intracellular calcium mobilization, parent CHO cells without transfected receptors; format: cell-based, Chinese hamster
[3] = test system: parental CHO cell line without any transfected receptors; test: Forskolin‐stimulated cAMP accumulation, parent CHO cells without transfected receptors; format: cell-based, Chinese hamster
[4] = test system: parental CHO cell line without any transfected receptors; test: ERK1/2‐phosphorylation, parent CHO cells without transfected receptors; format: cell-based, Chinese hamster; conditions: for Emax: read-out: ERK1/2-phosphorylation % PDBu
human α1B‐adrenoceptor [5] = biological target: T1, human α1B‐adrenoceptor (Homo sapiens, UniProt P35368); test: Intracellular free calcium mobilization, CHO‐α1B cells; format: cell-based
T1 construct: expressed in transfected cells; host or cells: CHO-K1
T1 sequence (P35368 1-520): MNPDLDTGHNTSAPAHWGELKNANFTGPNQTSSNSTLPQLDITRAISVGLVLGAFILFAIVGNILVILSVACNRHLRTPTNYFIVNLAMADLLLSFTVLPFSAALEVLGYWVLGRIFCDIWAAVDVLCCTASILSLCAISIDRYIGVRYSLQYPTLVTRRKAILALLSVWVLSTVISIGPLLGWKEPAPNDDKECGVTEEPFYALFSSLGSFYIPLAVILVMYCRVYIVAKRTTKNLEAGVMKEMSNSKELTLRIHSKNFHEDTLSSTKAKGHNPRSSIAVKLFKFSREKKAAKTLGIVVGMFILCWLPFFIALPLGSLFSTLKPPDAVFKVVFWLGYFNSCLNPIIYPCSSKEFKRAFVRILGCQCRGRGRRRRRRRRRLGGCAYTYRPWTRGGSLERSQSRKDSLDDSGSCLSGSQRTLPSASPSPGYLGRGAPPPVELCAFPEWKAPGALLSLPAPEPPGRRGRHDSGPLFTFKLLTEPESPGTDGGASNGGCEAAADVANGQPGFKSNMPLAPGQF

human α1A‐adrenoceptor [6] = biological target: T2, human α1A‐adrenoceptor (Homo sapiens, UniProt P35348); test: ^3H‐cAMP accumulation in the presence of 10 μM forskolin, CHO‐α1A cells; format: cell-based; conditions: for cAMP accumulation (in presence of forskolin) Fold increase: fold increase of the forskolin response
T2 construct: expressed in transfected cells; host or cells: CHO-K1
T2 sequence (P35348 1-466): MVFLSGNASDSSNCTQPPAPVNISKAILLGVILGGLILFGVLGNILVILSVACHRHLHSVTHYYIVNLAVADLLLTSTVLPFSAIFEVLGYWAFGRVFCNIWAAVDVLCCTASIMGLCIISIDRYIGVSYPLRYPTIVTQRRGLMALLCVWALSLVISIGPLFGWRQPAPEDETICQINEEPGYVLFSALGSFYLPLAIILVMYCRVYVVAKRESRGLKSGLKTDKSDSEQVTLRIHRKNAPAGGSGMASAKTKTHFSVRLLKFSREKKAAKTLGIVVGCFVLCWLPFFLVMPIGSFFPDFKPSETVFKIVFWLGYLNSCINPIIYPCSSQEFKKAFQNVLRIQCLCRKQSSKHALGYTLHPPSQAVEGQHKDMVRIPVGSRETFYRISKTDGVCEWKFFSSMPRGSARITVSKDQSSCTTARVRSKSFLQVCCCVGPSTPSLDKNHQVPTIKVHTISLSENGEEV

human α1B‐adrenoceptor [7] = biological target: T1, human α1B‐adrenoceptor; test: ERK1/2‐phosphorylation (Surefire Alphascreen), CHO‐α1B cells; format: cell-based
human α1A‐adrenoceptor [8] = biological target: T2, human α1A‐adrenoceptor; test: ERK1/2‐phosphorylation (Surefire Alphascreen), CHO‐α1A cells; format: cell-based
[9] = biological target: T3, human α1D‐adrenoceptor (full length) (Homo sapiens, UniProt P25100); test: Intracellular free calcium mobilization, CHO‐α1D cells; format: cell-based
T3 construct: human α1D‐adrenoceptor (full length) were used; expressed in transfected cells; host or cells: CHO-K1
T3 sequence (P25100 1-572): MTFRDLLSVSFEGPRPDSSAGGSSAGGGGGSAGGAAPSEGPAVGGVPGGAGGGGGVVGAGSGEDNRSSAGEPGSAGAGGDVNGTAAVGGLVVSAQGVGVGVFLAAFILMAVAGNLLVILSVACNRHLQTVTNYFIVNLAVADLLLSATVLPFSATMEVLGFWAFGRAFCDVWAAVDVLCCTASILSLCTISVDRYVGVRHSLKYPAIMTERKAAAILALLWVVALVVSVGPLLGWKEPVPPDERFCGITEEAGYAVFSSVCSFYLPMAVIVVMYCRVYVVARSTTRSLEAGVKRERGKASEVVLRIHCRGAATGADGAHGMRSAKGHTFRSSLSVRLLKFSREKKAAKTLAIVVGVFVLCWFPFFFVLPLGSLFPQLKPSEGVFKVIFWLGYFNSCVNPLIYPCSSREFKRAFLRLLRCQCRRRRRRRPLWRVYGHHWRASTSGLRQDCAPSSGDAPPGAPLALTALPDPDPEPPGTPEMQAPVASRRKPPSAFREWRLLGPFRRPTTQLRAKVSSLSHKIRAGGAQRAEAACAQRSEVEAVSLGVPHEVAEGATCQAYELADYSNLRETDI

human α1A‐adrenoceptor [10] = biological target: T2, human α1A‐adrenoceptor; test: Intracellular free calcium mobilization, CHO‐α1A cells; format: cell-based
human α1A‐adrenoceptor [11] = biological target: T2, human α1A‐adrenoceptor; test: ^3H‐cAMP accumulation, CHO‐α1A cells; format: cell-based; conditions: for cAMP accumulation % forskolin: % of 10 µM forskolin response
[12] = biological target: T3, human α1D‐adrenoceptor (full length); test: ERK1/2‐phosphorylation (Surefire Alphascreen), CHO‐α1D cells; format: cell-based
human α1B‐adrenoceptor [13] = biological target: T1, human α1B‐adrenoceptor; test: ^3H‐cAMP accumulation in the presence of 10 μM forskolin, CHO‐α1B cells; format: cell-based
human α1B‐adrenoceptor [14] = biological target: T1, human α1B‐adrenoceptor; test: ^3H‐cAMP accumulation, CHO‐α1B cells; format: cell-based; conditions: CHO‐α1B cells
[15] = biological target: T3, human α1D‐adrenoceptor (full length); test: ^3H‐cAMP accumulation in the presence of 10 μM forskolin, CHO‐α1D cells; format: cell-based
[16] = biological target: T3, human α1D‐adrenoceptor (full length); test: ^3H‐cAMP accumulation, CHO‐α1D cells; format: cell-based; conditions: cAMP accumulation without forskolin
human α1B‐adrenoceptor [17] = biological target: T1, human α1B‐adrenoceptor; test: ^3H‐prazosin whole‐cell radioligand binding, CHO‐α1B cells
[18] = biological target: T3, human α1D‐adrenoceptor (full length); test: ^3H‐prazosin whole‐cell radioligand binding, CHO‐α1D cells
human α1A‐adrenoceptor [19] = biological target: T2, human α1A‐adrenoceptor; test: ^3H‐prazosin whole‐cell radioligand binding, CHO‐α1A cells

## CC(N)C(O)c1ccc(O)c(O)c1 (stereo not drawn) [α-methylnorepinephrine]
[1]
  cAMP accumulation % forskolin: No response
[2]
  Intracellular calcium release % ionomycin: No response
[3]
  cAMP accumulation (in presence of forskolin) % forskolin-stim cAMP: No response
  cAMP accumulation (in presence of forskolin) Log EC50: No response
[4]
  ERK1/2-phosphorylation % PDBu: No response
  ERK1/2-phosphorylation Log EC50: No response

## CCC1(c2cnc[nH]2)Cc2ccccc2C1 [Atipamezole]
[1]
  cAMP accumulation % forskolin: No response
Human α1B‐adrenoceptor [5]
  Intracellular calcium release % Ionomycin at 100 µM: 18.1 ± 4.8%
Human α1A‐adrenoceptor [6]; CHO‐α1A cells, 10 μM forskolin, read-out: cAMP accumulation (in presence of forskolin) Log EC50 (converted)
  EC50: 479 nM
Human α1A‐adrenoceptor [6]; CHO‐α1A cells
  cAMP accumulation (in presence of forskolin) Fold increase: 2.00 ± 0.10 fold
Human α1B‐adrenoceptor [7]
  ERK1/2‐phosphorylation % PDBu: No response
Human α1B‐adrenoceptor [7]; CHO‐α1B cells, for bi‐phasic responses the initial stimulatory part
  ERK1/2‐phosphorylation Log EC50: No response
Human α1A‐adrenoceptor [8]
  ERK1/2‐phosphorylation % PDBu: 87.1 ± 5.0%
Human α1A‐adrenoceptor [8]; CHO‐α1A cells, 2–4 min, ^a bi‐phasic: initial stimulatory part, ^b also active in parent CHO cells, read-out: ERK1/2‐phosphorylation Log EC50 (converted)
  EC50: 100 nM
[2]
  Intracellular calcium release % ionomycin: No response
[3]
  cAMP accumulation (in presence of forskolin) % forskolin-stim cAMP: No response
  cAMP accumulation (in presence of forskolin) Log EC50: No response
[9]
  Intracellular calcium release % ionomycin: No response
[9]; CHO‐α1D cells, log values given negative
  Intracellular calcium release Log EC50: No response
[4]
  ERK1/2-phosphorylation % PDBu at 10μM: 3.1 ± 1.9%
Human α1A‐adrenoceptor [10]
  Intracellular calcium release % ionomycin: 44.5 ± 2.6%
  Log efficacy ratio KD /EC50: 0.62
Human α1A‐adrenoceptor [10]; CHO‐α1A cells, given as log EC50 (negative), read-out: Intracellular calcium release Log EC50 (converted)
  EC50: 245 nM
Human α1A‐adrenoceptor [11]; CHO‐α1A cells, 5 h, read-out: cAMP accumulation Log EC50 (converted)
  EC50: 1170 nM
Human α1A‐adrenoceptor [11]; CHO‐α1A cells
  cAMP accumulation % forskolin: 14.5 ± 2.6%
[12]
  ERK1/2‐phosphorylation % PDBu at 10 µM: 5.3 ± 4.6%

## CCN(CC)C(=O)N[C@H]1C=C2c3cccc4[nH]cc(c34)C[C@H]2N(C)C1 [Lisuride]
[1]
  cAMP accumulation % forskolin: No response
[2]
  Intracellular calcium release % ionomycin: No response
[3]
  cAMP accumulation (in presence of forskolin) % forskolin-stim cAMP at 10μM: 85.2 ± 5.0%
[4]
  ERK1/2‐phosphorylation response in parent CHO cells: stimulated ERK1/2‐phosphorylation responses
[4]; Cricetulus griseus, CHO
  Emax: 41 ± 6.4%

## Cc1cc(C(C)(C)C)cc(C)c1CC1=NCCN1 [Xylometazoline]
Human α1B‐adrenoceptor [5]
  Intracellular calcium release % Ionomycin at 100 µM: 13.6 ± 3.3%
Human α1B‐adrenoceptor [13]
  IC50: 9.12 nM
Human α1B‐adrenoceptor [13]; CHO‐α1B cells, footnote c
  % inhibition of forskolin‐stimulated cAMP: 13.5 ± 1.8%a
Human α1B‐adrenoceptor [13]; not α1‐mediated
  Effect on cAMP accumulation in the presence of forskolin, CHO‐α1B cells: decrease in cAMP accumulation
Human α1B‐adrenoceptor [14]
  cAMP accumulation Log EC50: No response
Human α1B‐adrenoceptor [14]; % forskolin maximum response
  cAMP accumulation % forskolin: No response
Human α1A‐adrenoceptor [6]
  EC50: 30.2 nM
Human α1A‐adrenoceptor [6]; CHO‐α1A cells
  cAMP accumulation (in presence of forskolin) Fold increase: 2.00 ± 0.09 fold
Human α1B‐adrenoceptor [7]
  ERK1/2‐phosphorylation % PDBu: 66.2 ± 6.0%
[15]
  IC50: 29.5 nM
[15]; CHO‐α1D cells, decrease in forskolin‐stimulated cAMP accumulation (footnote b)
  % inhibition of forskolin‐stimulated cAMP: *26.5 ± 1.1%
[15]; not α1‐mediated
  Effect on cAMP accumulation in the presence of forskolin, CHO‐α1D cells: decrease in cAMP accumulation; also recorded: inhibitory cAMP response
Human α1A‐adrenoceptor [8]
  EC50: 3.8 nM
  ERK1/2‐phosphorylation % PDBu: 98.8 ± 5.1%
  ERK1/2‐phosphorylation potency in CHO‐α1A cells relative to untransfected parent CHO cells: > 10 fold
[16]
  cAMP Log EC50: No response
Human α1B‐adrenoceptor [17]
  Kd: 6920 nM
Human α1B‐adrenoceptor [17]; Log KD, ^3H‐prazosin binding
  Kd: 6920 nM
[2]; Cricetulus griseus, CHO cells without transfected receptors, response at maximum concentration used (c2), as % of ionomycin (10μM) response, mean ± s.e.m., read-out: Intracellular calcium release % ionomycin
  Emax: 15.8 ± 2.7%
[3]; CHO cells without transfected receptors, footnote *: % inhibition
  % inhibition of forskolin-stimulated cAMP: 21.0 ± 2.4%*
[3]; Cricetulus griseus, CHO cells without transfected receptors, footnote *: log IC50, read-out: log IC50, decrease in forskolin-stimulated cAMP accumulation (converted)
  IC50: 66.1 nM
[3]; untransfected cells
  Effect on cAMP accumulation in the presence of forskolin, parent cells: decrease in cAMP accumulation
[9]
  Intracellular calcium release % Ionomycin at 100 µM: 18.6 ± 2.0%
[4]; Cricetulus griseus, CHO cells without transfected receptors, maximal response as % of PDBu (10μM) response, mean ± s.e.m.
  Emax: 56.2 ± 5.9%
[4]; Cricetulus griseus, CHO cells without transfected receptors, mean ± s.e.m., read-out: ERK1/2-phosphorylation Log EC50 (converted)
  EC50: 89.1 nM
[4]; untransfected cells
  ERK1/2‐phosphorylation response in parent CHO cells: stimulated ERK1/2‐phosphorylation responses
[18]
  Affinity selectivity ratio α1B vs α1D: 1.2 fold
  Kd: 5890 nM
[18]; 3H‐prazosin binding Log KD
  Kd: 5890 nM
Human α1A‐adrenoceptor [10]
  EC50: 2.51 nM
  Intracellular calcium release % ionomycin: 64.4 ± 2.7%
  Log efficacy ratio KD /EC50: 1.66
Human α1A‐adrenoceptor [11]
  EC50: 126 nM
Human α1A‐adrenoceptor [11]; CHO‐α1A cells
  cAMP accumulation % forskolin: 32.4 ± 5.7%
[12]
  ERK1/2‐phosphorylation % PDBu: 70.8 ± 7.8%
Human α1A‐adrenoceptor [19]
  Affinity selectivity ratio α1A vs α1B: 60.3 fold
  Affinity selectivity ratio α1A vs α1D: 51.3 fold
  Kd: 115 nM
